{"source": "patent US4973465A", "about": "“Microcrystals comprising an active substance having an affinity for phospholipids, and at least one phospholipid, process of preparation” (priority 1986, dated 1990)", "test_system": "infected macrophages", "test": "in vitro activity relative to infected macrophages, microcrystals containing cholesterol", "type": "cell-based", "data": [{"molecule": "C[C@@H]1[C@H](O)[C@@H](C)/C=C/C=C/C=C/C=C/C=C/C=C/C=C/[C@H](O[C@@H]2O[C@H](C)[C@@H](O)[C@H](N)[C@@H]2O)C[C@@H]2O[C@](O)(C[C@@H](O)C[C@@H](O)[C@H](O)CC[C@@H](O)C[C@@H](O)CC(=O)O[C@H]1C)C[C@H](O)[C@H]2C(=O)O", "note": "[control amphotericin B, amphotericin B]", "values": [{"measurement": "MIC on infected macrophages", "value": 0.4, "unit": "µM"}]}]}
